From US7598417B2, “Substituted fluoroethyl ureas as alpha 2 adrenergic agents” (Allergan, Inc., priority 2007, dated 2009)
pEC50: −log10 of the molar value. Where two headings read alike, the source gives them in different places. Each block holds one compound with its values, some of them ahead of it.

Columns and labels:
Assay type in all cases: cell-based
alpha2A receptor = molecular target: T1, alpha2A receptor (Homo sapiens, UniProt P08913); experiment: Receptor Selection and Amplification Technology (RSAT) assay, alpha2A; details: for Alpha 2A IA (intrinsic activity): ratio of maximal effect of the drug to maximal effect of standard full agonist brimonidine (UK14304)
T1 construct: expressed in transfected cells; host or cells: NIH-3T3
T1 sequence (P08913 1-465): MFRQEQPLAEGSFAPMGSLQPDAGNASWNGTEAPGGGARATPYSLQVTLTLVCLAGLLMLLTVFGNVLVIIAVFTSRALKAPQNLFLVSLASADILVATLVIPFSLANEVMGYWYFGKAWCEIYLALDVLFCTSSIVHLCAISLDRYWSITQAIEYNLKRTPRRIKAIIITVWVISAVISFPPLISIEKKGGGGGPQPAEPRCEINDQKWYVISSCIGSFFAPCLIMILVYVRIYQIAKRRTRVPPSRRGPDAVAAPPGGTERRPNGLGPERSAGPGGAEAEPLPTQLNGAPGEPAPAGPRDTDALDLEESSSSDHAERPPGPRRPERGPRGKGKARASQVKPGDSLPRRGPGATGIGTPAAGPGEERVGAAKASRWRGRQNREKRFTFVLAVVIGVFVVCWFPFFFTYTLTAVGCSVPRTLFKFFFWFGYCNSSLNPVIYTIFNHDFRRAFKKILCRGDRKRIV
Description: (§1) Receptor Selection and Amplification Technology (RSAT) Assay
(§2) The RSAT assay measures a receptor-mediated loss of contact inhibition that results in selective proliferation of receptor-containing cells in a mixed population of confluent cells. The increase in cell number is assessed with an appropriate transfected marker gene such as β-galactosidase, the activity of which can be easily measured in a 96-well format. Receptors that activate the G protein, Gq, elicit this response. Alpha2 receptors, which normally couple to Gi, activate the RSAT response when coexpressed with a hybrid Gq protein that has a Gi receptor recognition domain, called Gq/i5.
(§3) NIH-3T3 cells are plated at a density of 2×10^6 cells in 15 cm dishes and maintained in Dulbecco's modified Eagle's medium supplemented with 10% calf serum. One day later, cells are cotransfected by calcium phosphate precipitation with mammalian expression plasmids encoding p-SV-β-galactosidase (5-10 μg), receptor (1-2 μg) and G protein (1-2 μg). 40 μg salmon sperm DNA may also be included in the transfection mixture. Fresh media is added on the following day and 1-2 days later, cells are harvested and frozen in 50 assay aliquots. Cells are thawed and 100 μl added to 100 μl aliquots of various concentrations of drugs in triplicate in 96-well dishes. Incubations continue 72-96 hr at 37° C. After washing with phosphate-buffered saline, β-galactosidase enzyme activity is determined by adding 200 μl of the chromogenic substrate (consisting of 3.5 mM o-nitrophenyl-β-D-galactopyranoside and 0.5% nonidet P-40 in phosphate buffered saline), incubating overnight at 30° C. and measuring optical density at 420 nm. The absorbance is a measure of enzyme activity, which depends on cell number and reflects a receptor-mediated cell proliferation. The efficacy or intrinsic activity is calculated as a ratio of the maximal effect of the drug to the maximal effect of a standard full agonist for each receptor subtype. Brimonidine, also called UK14304, the chemical structure of which is shown below, is used as the standard agonist for the alpha2A, alpha2B and alpha2C receptors. The EC50 is the concentration at which the drug effect is half of its maximal effect.
(§4) EC50 values are nanomolar. NA stands for “not active” at concentrations less than 10 micromolar. IA stands for “intrinsic activity.”

alpha2B receptor = molecular target: T2, alpha2B receptor (Homo sapiens, UniProt P18089); experiment: Receptor Selection and Amplification Technology (RSAT) assay, alpha2B; details: for Alpha 2B IA (intrinsic activity): ratio of maximal effect of the drug to maximal effect of standard full agonist brimonidine (UK14304)
T2 construct: expressed in transfected cells; host or cells: NIH-3T3
T2 sequence (P18089 1-450): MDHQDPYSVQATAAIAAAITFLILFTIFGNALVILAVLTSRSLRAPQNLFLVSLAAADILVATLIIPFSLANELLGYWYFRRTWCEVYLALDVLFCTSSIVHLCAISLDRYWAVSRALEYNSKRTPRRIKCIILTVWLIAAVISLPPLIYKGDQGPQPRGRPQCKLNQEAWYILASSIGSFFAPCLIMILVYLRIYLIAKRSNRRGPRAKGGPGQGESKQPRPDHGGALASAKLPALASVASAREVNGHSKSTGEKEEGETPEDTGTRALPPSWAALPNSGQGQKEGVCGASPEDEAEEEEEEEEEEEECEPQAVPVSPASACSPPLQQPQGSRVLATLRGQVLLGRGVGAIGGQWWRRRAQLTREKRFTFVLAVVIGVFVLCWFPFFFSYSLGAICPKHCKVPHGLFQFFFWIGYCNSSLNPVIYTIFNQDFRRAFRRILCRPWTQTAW
Description: as §1, §2, §3
The results of the RSAT assay with several exemplary compounds of the invention are disclosed in Table 1 above together with the chemical formulas of these exemplary compounds. EC50 values are nanomolar. NA stands for “not active” at concentrations less than 10 micromolar. IA stands for “intrinsic activity.”

alpha2C receptor = molecular target: T3, alpha2C receptor (Homo sapiens, UniProt P18825); experiment: Receptor Selection and Amplification Technology (RSAT) assay, alpha2C; details: for Alpha 2C IA (intrinsic activity): ratio of maximal effect of the drug to maximal effect of standard full agonist brimonidine (UK14304)
T3 construct: expressed in transfected cells; host or cells: NIH-3T3
T3 sequence (P18825 1-462): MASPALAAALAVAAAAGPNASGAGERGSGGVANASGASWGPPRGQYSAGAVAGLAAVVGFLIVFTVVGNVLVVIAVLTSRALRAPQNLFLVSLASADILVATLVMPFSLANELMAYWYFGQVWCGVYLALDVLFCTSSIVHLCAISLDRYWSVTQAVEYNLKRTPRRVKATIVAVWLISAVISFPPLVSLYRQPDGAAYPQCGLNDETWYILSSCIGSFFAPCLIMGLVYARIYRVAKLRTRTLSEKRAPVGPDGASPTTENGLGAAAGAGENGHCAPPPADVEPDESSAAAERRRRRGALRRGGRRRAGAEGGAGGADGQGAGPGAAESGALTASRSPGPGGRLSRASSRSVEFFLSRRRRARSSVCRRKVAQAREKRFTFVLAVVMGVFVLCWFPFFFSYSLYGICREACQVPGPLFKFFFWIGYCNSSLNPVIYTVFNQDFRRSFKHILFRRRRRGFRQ
Description: as §1, §2, §3, §4

[1] = RSAT, NIH-3T3 cells cotransfected with receptor and Gq/i5, not active = not active at concentrations less than 10 micromolar, read-out: Alpha 2A EC50
[2] = RSAT, NIH-3T3 cells cotransfected with receptor and Gq/i5, not active = not active at concentrations less than 10 micromolar, read-out: Alpha 2B EC50
[3] = RSAT, NIH-3T3 cells cotransfected with receptor and Gq/i5, not active = not active at concentrations less than 10 micromolar, read-out: Alpha 2C EC50
[4] = RSAT, NIH-3T3 cells cotransfected with receptor and Gq/i5, not active = not active at concentrations less than 10 micromolar

Structure (SMILES): CC1CCC(NC(=O)NCCF)c2ccccc21 (stereo not drawn)
- pEC50 (alpha2A receptor; [1]): 6.48
- Alpha 2A IA (intrinsic activity) (alpha2A receptor): 0.34
- pEC50 (alpha2B receptor; [2]): 7.68
- Alpha 2B IA (intrinsic activity) (alpha2B receptor): 0.89
- pEC50 (alpha2C receptor; [3]): 6.55
- Alpha 2C IA (intrinsic activity) (alpha2C receptor): 0.45

Structure (SMILES): CCC1=CC(NC(=O)NCCF)CCC1 (stereo not drawn)
- Alpha 2A EC50 (alpha2A receptor; [4]): not active
- Alpha 2B EC50 (alpha2B receptor; [4]): not active
- pEC50 (alpha2C receptor; [3]): 6.46
- Alpha 2C IA (intrinsic activity) (alpha2C receptor): 0.32

Structure (SMILES): Cc1ccc2c(c1)CC(NC(=O)NCCF)C2 (stereo not drawn)
- Alpha 2A EC50 (alpha2A receptor; [4]): not active
- pEC50 (alpha2B receptor; [2]): 6.20
- Alpha 2B IA (intrinsic activity) (alpha2B receptor): 0.6
- Alpha 2C EC50 (alpha2C receptor; [4]): not active

Structure (SMILES): CC1CC(NC(=O)NCCF)c2ccccc21 (stereo not drawn)
- Alpha 2A EC50 (alpha2A receptor; [4]): not active
- pEC50 (alpha2B receptor; [2]): 7.96
- Alpha 2B IA (intrinsic activity) (alpha2B receptor): 0.96
- pEC50 (alpha2C receptor; [3]): 6.77
- Alpha 2C IA (intrinsic activity) (alpha2C receptor): 0.43

Structure (SMILES): COc1ccc2c(c1)CC(NC(=O)NCCF)C2 (stereo not drawn)
- Alpha 2A EC50 (alpha2A receptor; [4]): not active
- pEC50 (alpha2B receptor; [2]): 5.86
- Alpha 2B IA (intrinsic activity) (alpha2B receptor): 0.45
- Alpha 2C EC50 (alpha2C receptor; [4]): not active

Structure (SMILES): COc1cccc2c1CC(NC(=O)NCCF)C2 (stereo not drawn)
- Alpha 2A EC50 (alpha2A receptor; [4]): not active
- pEC50 (alpha2B receptor; [2]): 8.12
- Alpha 2B IA (intrinsic activity) (alpha2B receptor): 1.57
- pEC50 (alpha2C receptor; [3]): 7.39
- Alpha 2C IA (intrinsic activity) (alpha2C receptor): 0.63

Structure (SMILES): CCC1=CCCCC1NC(=O)NCCF (stereo not drawn)
- pEC50 (alpha2A receptor): 6.74
- Alpha 2A IA (intrinsic activity) (alpha2A receptor): 0.64
- pEC50 (alpha2B receptor): 7.35
- Alpha 2B IA (intrinsic activity) (alpha2B receptor): 1.22
- pEC50 (alpha2C receptor): 6.46
- Alpha 2C IA (intrinsic activity) (alpha2C receptor): 0.59

The remaining lines, values ahead:

- Alpha 2A EC50 (alpha2A receptor; [4]): not active
- pEC50 (alpha2B receptor; [2]): 7.73
- Alpha 2B IA (intrinsic activity) (alpha2B receptor): 0.97
- pEC50 (alpha2C receptor; [3]): 6.93
- Alpha 2C IA (intrinsic activity) (alpha2C receptor): 0.53
Structure (SMILES): O=C(NCCF)NC1CCc2ccc(F)c(F)c21 (stereo not drawn)

- pEC50 (alpha2A receptor; [1]): 6.92
- Alpha 2A IA (intrinsic activity) (alpha2A receptor): 0.59
- pEC50 (alpha2B receptor; [2]): 8.92
- Alpha 2B IA (intrinsic activity) (alpha2B receptor): 1.1
- pEC50 (alpha2C receptor; [3]): 7.17
- Alpha 2C IA (intrinsic activity) (alpha2C receptor): 0.79
Structure (SMILES): Cc1cccc2c1CCC2NC(=O)NCCF (stereo not drawn)

- Alpha 2A EC50 (alpha2A receptor; [4]): not active
- pEC50 (alpha2B receptor; [2]): 6.19
- Alpha 2B IA (intrinsic activity) (alpha2B receptor): 0.64
- Alpha 2C EC50 (alpha2C receptor; [4]): not active
Structure (SMILES): Cc1ccc2c(c1C)C(NC(=O)NCCF)CC2 (stereo not drawn)

- Alpha 2A EC50 (alpha2A receptor; [4]): not active
- pEC50 (alpha2B receptor; [2]): 8.80
- Alpha 2B IA (intrinsic activity) (alpha2B receptor): 1.0
- pEC50 (alpha2C receptor; [3]): 7.76
- Alpha 2C IA (intrinsic activity) (alpha2C receptor): 0.47
Structure (SMILES): O=C(NCCF)N[C@H]1CCc2ccccc21

- pEC50 (alpha2A receptor; [1]): 7.22
- Alpha 2A IA (intrinsic activity) (alpha2A receptor): 0.41
- pEC50 (alpha2B receptor; [2]): 8.06
- Alpha 2B IA (intrinsic activity) (alpha2B receptor): 1.08
- pEC50 (alpha2C receptor; [3]): 7.02
- Alpha 2C IA (intrinsic activity) (alpha2C receptor): 0.55
Structure (SMILES): O=C(NCCF)NC1CCc2cccc(F)c21 (stereo not drawn)

- Alpha 2A EC50 (alpha2A receptor; [4]): not active
- pEC50 (alpha2B receptor; [2]): 7.07
- Alpha 2B IA (intrinsic activity) (alpha2B receptor): 0.6
- Alpha 2C EC50 (alpha2C receptor; [4]): not active
Structure (SMILES): Cc1c(Cl)ccc2c1C(NC(=O)NCCF)CC2 (stereo not drawn)

- Alpha 2A EC50 (alpha2A receptor; [4]): not active
- pEC50 (alpha2B receptor; [2]): 8.20
- Alpha 2B IA (intrinsic activity) (alpha2B receptor): 1.21
- pEC50 (alpha2C receptor; [3]): 6.72
- Alpha 2C IA (intrinsic activity) (alpha2C receptor): 0.64
Structure (SMILES): O=C(NCCF)NC1CCc2ccccc21 (stereo not drawn)
